Earlier results in US9302023B2, “Aldehyde gas deodorant and method for producing same” (TOAGOSEI CO., LTD., priority 2012, dated 2016).

Details: stated as known; unsupported substance

Structure (SMILES) | Mutagenicity of the substance itself
NNC(=O)C(=O)NN [oxalic dihydrazide] | negative
NN [hydrated hydrazine] | strongly positive
NNC(=O)CCC(=O)NN [succinic dihydrazide] | weakly positive
NNC(=O)CCCCC(=O)NN [adipic dihydrazide] | negative
NN [hydrazine] | positive
NNC(=O)NN [carbohydrazide] | negative

Same assay, conditions: stated as known; unsupported substance; listed as Hydrazine

Structure (SMILES) | Mutagenicity of the substance itself
NN [hydrazine] | highly positive
